Source: ChEMBL document CHEMBL3507680, “University of Dundee, Gates Library screen for HepG2 cell viability”

test: Human HepG2 cell viability assay in 384 well format; format: toxicity, cell-based; design: dose 125 nL, time 70.5 hour; concentration not given beside the values; conditions: HepG2 cells, read-out: Inhibition

Structure (SMILES)	cytotoxicity at 70.5 h [%]
COc1ccc(CNC(C)c2cccc(Cl)c2)c(OC)c1OC (configuration not stated)	-0.149
Cc1ccc(N2CCCC(N(C)Cc3cc(C)no3)C2)nn1 (configuration not stated)	-2.5
CN1CCN(C(CNC(=O)CCn2cccn2)c2cccs2)CC1 (configuration not stated)	-4.76
Cn1cccc1C1CCCN1C(=O)NCCCn1cccn1 (configuration not stated)	-7.92
FC(F)(F)COCCN1CCCC(c2noc(C3CC3)n2)C1 (configuration not stated)	-10.4
O=C(COc1cccc(Br)c1)N1CCN(c2nccs2)CC1	14.3
CCn1cc(NC(=O)NC2CCCc3c2cnn3CCO)cn1 (configuration not stated)	-2.96
COc1ncccc1C(=O)N1CCC(CNC(C)=O)CC1	-11.5
O=C(NCCNS(=O)(=O)c1ccc2c(c1)CCCC2)c1ccoc1	-8.42
Cc1ccc(S(=O)(=O)NCCNC(=O)c2ccoc2)cc1F	11.8
CN(C)CCn1c(=O)oc2ccc(NC(=O)c3cc(Cl)c[nH]3)cc21	-2.49
O=C(CCNS(=O)(=O)c1ccc2c(c1)CCCC2)NCc1ccoc1	-11.5
CN(C)CCn1c(=O)oc2ccc(NC(=O)CC(C)(C)C)cc21	-6.79
CCN(C)c1ccc(C(=O)N(CCOC)Cc2ccccn2)cc1	14.7
CN(C)CCn1c(=O)oc2ccc(NC(=O)C3CCCO3)cc21 (configuration not stated)	1.22
O=C(NCc1ccncc1)N(Cc1ccccc1F)C1CC1	13
Cc1cc(C)n(CC2CCCCN2CC(=O)Nc2nncs2)n1 (configuration not stated)	-7.4
CN(C)C(=O)CN(C)C(=O)c1cnc(Cc2ccc(F)cc2)s1	-0.843
Cc1ccc(CNC(=O)N(Cc2ccccc2F)C2CC2)cn1	-1.38
CCC(=O)NCc1cc(Br)c(OC)c(OC)c1	-0.621
COc1ccccc1OCCN1CCCC(c2noc(C3CC3)n2)C1 (configuration not stated)	-0.413

Structure (SMILES)	cytotoxicity at 70.5 h [%]
Cc1oc(C(=O)O)cc1S(=O)(=O)Nc1c(F)cccc1-n1cccn1	-0.99
Cc1cnc(C(=O)N2CCN3C[C@H](OCc4cccnc4)C[C@H]3C2)cn1	-9.39
CCS(=O)(=O)N1CCC2(CC1)CN(c1ccsc1)C(=O)CO2	-11.6
CCOC[C@@H]1CCC[C@@]12CN(Cc1cccnc1)CCO2	-5.78
Cn1cc(C[C@H]2[C@H](O)CCN2C(=O)c2ccsc2)cn1	-4.72
Cn1cc(-c2cnc(N3CCOCC3)nc2)cc1C(=O)NC1CC1	23.6
CC(C)NC(=O)[C@@H]1CN(Cc2nccs2)C[C@H]2OCC[C@H]21	36
COCC1CN(C(=O)c2ccc(C)o2)Cc2nccn2C1 (configuration not stated)	14.4
Cc1noc(C)c1CN1C[C@@H]2COC[C@@H](C(=O)N3CCCCO3)[C@@H]2C1	-8.21
Cc1cc(CN2C[C@@H]3COC[C@H](C(=O)N4CCCCO4)[C@@H]3C2)oc1C	-11
Cc1cc(CN2C[C@@H]3COC[C@@H](C(=O)N4CCCCO4)[C@@H]3C2)oc1C	-6.96
Cc1ccsc1C(=O)N1CC[C@@H](N(C)C)[C@@H]1Cc1cnn(C)c1	-11.2
CN(C)[C@@H]1CCN(C(=O)Cc2cccs2)[C@H]1Cc1cnn(C)c1	-8.18
CN(C)C(=O)c1cnc2n1CCN(Cc1ccc3c(c1)OCO3)C2	-7.97
Cn1cc(-c2cnc(N3CCOCC3)nc2)cc1C(=O)NCCC#N	-9.71
O=C(c1ccco1)N1CCO[C@@H]2CN(CC3CC3)CC[C@@H]2C1	28
CN(C)CCN1C(=O)CC[C@@H]2[C@H]1CCN2Cc1cccc(C#N)c1	-8.56
Cc1ccc(C(=O)N2CC[C@@H](N(C)C)[C@@H]2Cc2cnn(C)c2)cn1	-10.1
N#Cc1cccc(CN2CC[C@@H]3[C@@H]2CC(=O)N3Cc2ccncc2)c1	-3.67
COCCN1C[C@@H]2[C@@H](OC)CCN(S(=O)(=O)c3cccnc3)[C@@H]2C1	-12.3
c1ccc(CN2CC[C@@H]3O[C@@H](COCCN4CCCC4)CC[C@@H]32)nc1	-13.6
